Columns and labels:
RPE1 cell line = test: Cell viability MTS assay, dose-response; format: cell-based; conditions: Homo sapiens, RPE-1; 48 h, MTS assay in triplicate, doses up to 50 µM
Description: (§1) HCT116 cells were cultured in McCoy’s medium. SH-SY5Y, MDA-MB231 and U-2 OS cells were cultured in Dulbecco's modified Eagle's medium (DMEM) and hTERT RPE-1 cells in DMEM:F12 medium. All media were supplemented with 10% foetal calf serum and cells were cultured at 37 °C in a 5% CO2 humidified atmosphere.
(§2) Cell viability was then assessed using the CellTiter96 AQueous cell proliferation assay from Promega according to the manufacturer’s instructions. Each experiment was done in triplicate and EC50 were determined from the dose-response curves according to the signal given by the control (0.1% DMSO) set at 100% viability using Prism GraphPad software.

U-2 OS cell line = test: Cell viability MTS assay, dose-response; format: cell-based; conditions: Homo sapiens, U2OS; 48 h, MTS assay in triplicate, doses up to 50 µM
Description: as §1, §2

Molecule `COc1ccc2[nH]c3c(=O)[nH]c4ccc(O)cc4c3c2c1` [Compound 55, 2-Hydroxy-10-methoxy-5,7-dihydro-6H-indolo[2,3-c]quinolin-6-one] has an EC50 (RPE1 cell line) of 10.7 µM and an EC50 (U-2 OS cell line) of 3.4 µM.
